In BindingDB's records for doi:10.1021/jm500763m (Beijing Institute of Pharmacology & Toxicology, 2014):
Square brackets hold non-standard residues; d marks the D form. Peptide text beside a SMILES is read from it. * marks the point of attachment. X1 = C=CCOC(=O)[C@]12CC[C@@H](C(=C)C)[C@@H]1[C@H]1CC[C@@H]3[C@@]4(C)CC[C@H](OC(=O)CCc5cn(CC(=O)*)nn5)C(C)(C)[C@@H]4CC[C@@]3(C)[C@]1(C)CC2; X9 = C=CCOC(=O)[C@]12CC[C@@H](C)[C@H](C)[C@H]1C1=CC[C@@H]3[C@@]4(C)CC[C@H](OC(=O)CCc5cn(CC(=O)*)nn5)C(C)(C)[C@@H]4CC[C@@]3(C)[C@]1(C)CC2; X3 = C=C(C)[C@@H]1CC[C@]2(C(=O)O)CC[C@]3(C)[C@H](CC[C@@H]4[C@@]5(C)CC[C@H](OC(=O)CCc6cn(CC(=O)*)nn6)C(C)(C)[C@@H]5CC[C@]43C)[C@@H]12; X5 = C=C(C)[C@@H]1CC[C@]2(C(=O)OCc3cn(CC(=O)*)nn3)CC[C@]3(C)[C@H](CC[C@@H]4[C@@]5(C)CC[C@H](OC(C)=O)C(C)(C)[C@@H]5CC[C@]43C)[C@@H]12; X2 = C=CCOC(=O)[C@]12CCC(C)(C)C[C@H]1C1=CC[C@@H]3[C@@]4(C)CC[C@H](OC(=O)CCc5cn(CC(=O)*)nn5)C(C)(C)[C@@H]4CC[C@@]3(C)[C@]1(C)CC2; X4 = C=C(C)[C@@H]1CC[C@]2(C(=O)OCc3cn(CC(=O)*)nn3)CC[C@]3(C)[C@H](CC[C@@H]4[C@@]5(C)CC[C@H](O)C(C)(C)[C@@H]5CC[C@]43C)[C@@H]12; X11 = CCCc1cn(CC(=O)*)nn1; βAla = NCCC(=O)O

Assay: Inhibition of HIV1 gp41-induced cell-cell fusion between viral envelope expressing human HL2/3 cells to CD4/CCR5 receptor expressing TZM-bl cells after 6 to 8 hrs by luciferase assay

Row | SMILES | EC50 [µM]
1 | C=C(C)[C@@H]1CC[C@]2(C(=O)O)CC[C@]3(C)[C@H](CC[C@@H]4[C@@]5(C)CC[C@H](O)C(C)(C)[C@@H]5CC[C@]43C)[C@@H]12 | > 100
2 | CC[C@H](C)[C@H](NC(=O)[C@H](CC(C)C)NC(=O)[C@H](CO)NC(=O)[C@H](Cc1cnc[nH]1)NC(=O)[C@@H](NC(=O)[C@H](CC(C)C)NC(=O)[C@H](CO)NC(=O)[C@@H](NC(=O)[C@H](Cc1ccc(O)cc1)NC(=O)[C@H](CC(N)=O)NC(=O)[C@H](CC(N)=O)NC(C)=O)[C@@H](C)O)[C@@H](C)CC)C(=O)N[C@@H](CCC(=O)O)C(=O)N[C@@H](CCC(=O)O)C(=O)N[C@@H](CO)C(=O)N[C@@H](CCC(N)=O)C(=O)N[C@@H](CC(N)=O)C(=O)N[C@@H](CCC(N)=O)C(=O)N[C@@H](CCC(N)=O)C(=O)N[C@@H](CCC(=O)O)C(=O)N[C@@H](CCCCN)C(=O)N[C@@H](CC(N)=O)C(=O)N[C@@H](CCC(=O)O)C(=O)N[C@@H](CCC(N)=O)C(=O)N[C@@H](CCC(=O)O)C(=O)N[C@@H](CC(C)C)C(=O)N[C@@H](CC(C)C)C(N)=O (Ac-NNYTSLIHSLIEESQNQQEKNEQELL-NH2) | 3.24
3 | C=CCOC(=O)[C@]12CCC(C)(C)C[C@H]1C1=CC[C@@H]3[C@@]4(C)CC[C@H](OC(=O)CCc5cn(CC(=O)NCCCC[C@H](NC(=O)CCNC(=O)[C@H](CC(C)C)NC(=O)[C@H](CC(C)C)NC(=O)[C@H](CCC(=O)O)NC(=O)[C@H](CCC(N)=O)NC(=O)[C@H](CCC(=O)O)NC(=O)[C@H](CC(N)=O)NC(=O)[C@H](CCCCN)NC(=O)[C@H](CCC(=O)O)NC(=O)[C@H](CCC(N)=O)NC(=O)[C@H](CCC(N)=O)NC(=O)[C@H](CC(N)=O)NC(=O)[C@H](CCC(N)=O)NC(=O)[C@H](CO)NC(=O)[C@H](CCC(=O)O)NC(=O)[C@H](CCC(=O)O)NC(=O)[C@@H](NC(=O)[C@H](CC(C)C)NC(=O)[C@H](CO)NC(=O)[C@H](Cc6cnc[nH]6)NC(=O)[C@@H](NC(=O)[C@H](CC(C)C)NC(=O)[C@H](CO)NC(=O)[C@@H](NC(=O)[C@H](Cc6ccc(O)cc6)NC(=O)[C@H](CC(N)=O)NC(=O)[C@H](CC(N)=O)NC(C)=O)[C@@H](C)O)[C@@H](C)CC)[C@@H](C)CC)C(N)=O)nn5)C(C)(C)[C@@H]4CC[C@@]3(C)[C@]1(C)CC2 (Ac-NNYTSLIHSLIEESQNQQEKNEQELL[βAla]K(X2)-NH2) | 0.0033
4 | C=C(C)[C@@H]1CC[C@]2(C(=O)O)CC[C@]3(C)[C@H](CC[C@@H]4[C@@]5(C)CC[C@H](OC(=O)CCc6cn(CC(=O)NCCCC[C@H](NC(=O)CCNC(=O)[C@H](CC(C)C)NC(=O)[C@H](CC(C)C)NC(=O)[C@H](CCC(=O)O)NC(=O)[C@H](CCC(N)=O)NC(=O)[C@H](CCC(=O)O)NC(=O)[C@H](CC(N)=O)NC(=O)[C@H](CCCCN)NC(=O)[C@H](CCC(=O)O)NC(=O)[C@H](CCC(N)=O)NC(=O)[C@H](CCC(N)=O)NC(=O)[C@H](CC(N)=O)NC(=O)[C@H](CCC(N)=O)NC(=O)[C@H](CO)NC(=O)[C@H](CCC(=O)O)NC(=O)[C@H](CCC(=O)O)NC(=O)[C@@H](NC(=O)[C@H](CC(C)C)NC(=O)[C@H](CO)NC(=O)[C@H](Cc7cnc[nH]7)NC(=O)[C@@H](NC(=O)[C@H](CC(C)C)NC(=O)[C@H](CO)NC(=O)[C@@H](NC(=O)[C@H](Cc7ccc(O)cc7)NC(=O)[C@H](CC(N)=O)NC(=O)[C@H](CC(N)=O)NC(C)=O)[C@@H](C)O)[C@@H](C)CC)[C@@H](C)CC)C(N)=O)nn6)C(C)(C)[C@@H]5CC[C@]43C)[C@@H]12 (Ac-NNYTSLIHSLIEESQNQQEKNEQELL[βAla]K(X3)-NH2) | 0.044
5 | C=C(C)[C@@H]1CC[C@]2(C(=O)OCc3cn(CC(=O)NCCCC[C@H](NC(=O)CCNC(=O)[C@H](CC(C)C)NC(=O)[C@H](CC(C)C)NC(=O)[C@H](CCC(=O)O)NC(=O)[C@H](CCC(N)=O)NC(=O)[C@H](CCC(=O)O)NC(=O)[C@H](CC(N)=O)NC(=O)[C@H](CCCCN)NC(=O)[C@H](CCC(=O)O)NC(=O)[C@H](CCC(N)=O)NC(=O)[C@H](CCC(N)=O)NC(=O)[C@H](CC(N)=O)NC(=O)[C@H](CCC(N)=O)NC(=O)[C@H](CO)NC(=O)[C@H](CCC(=O)O)NC(=O)[C@H](CCC(=O)O)NC(=O)[C@@H](NC(=O)[C@H](CC(C)C)NC(=O)[C@H](CO)NC(=O)[C@H](Cc4cnc[nH]4)NC(=O)[C@@H](NC(=O)[C@H](CC(C)C)NC(=O)[C@H](CO)NC(=O)[C@@H](NC(=O)[C@H](Cc4ccc(O)cc4)NC(=O)[C@H](CC(N)=O)NC(=O)[C@H](CC(N)=O)NC(C)=O)[C@@H](C)O)[C@@H](C)CC)[C@@H](C)CC)C(N)=O)nn3)CC[C@]3(C)[C@H](CC[C@@H]4[C@@]5(C)CC[C@H](O)C(C)(C)[C@@H]5CC[C@]43C)[C@@H]12 (Ac-NNYTSLIHSLIEESQNQQEKNEQELL[βAla]K(X4)-NH2) | 0.02
6 | C=C(C)[C@@H]1CC[C@]2(C(=O)OCc3cn(CC(=O)NCCCC[C@H](NC(=O)CCNC(=O)[C@H](CC(C)C)NC(=O)[C@H](CC(C)C)NC(=O)[C@H](CCC(=O)O)NC(=O)[C@H](CCC(N)=O)NC(=O)[C@H](CCC(=O)O)NC(=O)[C@H](CC(N)=O)NC(=O)[C@H](CCCCN)NC(=O)[C@H](CCC(=O)O)NC(=O)[C@H](CCC(N)=O)NC(=O)[C@H](CCC(N)=O)NC(=O)[C@H](CC(N)=O)NC(=O)[C@H](CCC(N)=O)NC(=O)[C@H](CO)NC(=O)[C@H](CCC(=O)O)NC(=O)[C@H](CCC(=O)O)NC(=O)[C@@H](NC(=O)[C@H](CC(C)C)NC(=O)[C@H](CO)NC(=O)[C@H](Cc4cnc[nH]4)NC(=O)[C@@H](NC(=O)[C@H](CC(C)C)NC(=O)[C@H](CO)NC(=O)[C@@H](NC(=O)[C@H](Cc4ccc(O)cc4)NC(=O)[C@H](CC(N)=O)NC(=O)[C@H](CC(N)=O)NC(C)=O)[C@@H](C)O)[C@@H](C)CC)[C@@H](C)CC)C(N)=O)nn3)CC[C@]3(C)[C@H](CC[C@@H]4[C@@]5(C)CC[C@H](OC(C)=O)C(C)(C)[C@@H]5CC[C@]43C)[C@@H]12 (Ac-NNYTSLIHSLIEESQNQQEKNEQELL[βAla]K(X5)-NH2) | 0.0079
7 | C=CCOC(=O)[C@]12CC[C@@H](C)[C@H](C)[C@H]1C1=CC[C@@H]3[C@@]4(C)CC[C@H](OC(=O)CCc5cn(CC(=O)NCCCC[C@H](NC(=O)CCNC(=O)[C@H](CC(C)C)NC(=O)[C@H](CC(C)C)NC(=O)[C@H](CCC(=O)O)NC(=O)[C@H](CCC(N)=O)NC(=O)[C@H](CCC(=O)O)NC(=O)[C@H](CC(N)=O)NC(=O)[C@H](CCCCN)NC(=O)[C@H](CCC(=O)O)NC(=O)[C@H](CCC(N)=O)NC(=O)[C@H](CCC(N)=O)NC(=O)[C@H](CC(N)=O)NC(=O)[C@H](CCC(N)=O)NC(=O)[C@H](CO)NC(=O)[C@H](CCC(=O)O)NC(=O)[C@H](CCC(=O)O)NC(=O)[C@@H](NC(=O)[C@H](CC(C)C)NC(=O)[C@H](CO)NC(=O)[C@H](Cc6cnc[nH]6)NC(=O)[C@@H](NC(=O)[C@H](CC(C)C)NC(=O)[C@H](CO)NC(=O)[C@@H](NC(=O)[C@H](Cc6ccc(O)cc6)NC(=O)[C@H](CC(N)=O)NC(=O)[C@H](CC(N)=O)NC(C)=O)[C@@H](C)O)[C@@H](C)CC)[C@@H](C)CC)C(N)=O)nn5)C(C)(C)[C@@H]4CC[C@@]3(C)[C@]1(C)CC2 (Ac-NNYTSLIHSLIEESQNQQEKNEQELL[βAla]K(X9)-NH2) | 0.0034
8 | CCCc1cn(CC(=O)NCCCC[C@H](NC(=O)CCNC(=O)[C@H](CC(C)C)NC(=O)[C@H](CC(C)C)NC(=O)[C@H](CCC(=O)O)NC(=O)[C@H](CCC(N)=O)NC(=O)[C@H](CCC(=O)O)NC(=O)[C@H](CC(N)=O)NC(=O)[C@H](CCCCN)NC(=O)[C@H](CCC(=O)O)NC(=O)[C@H](CCC(N)=O)NC(=O)[C@H](CCC(N)=O)NC(=O)[C@H](CC(N)=O)NC(=O)[C@H](CCC(N)=O)NC(=O)[C@H](CO)NC(=O)[C@H](CCC(=O)O)NC(=O)[C@H](CCC(=O)O)NC(=O)[C@@H](NC(=O)[C@H](CC(C)C)NC(=O)[C@H](CO)NC(=O)[C@H](Cc2cnc[nH]2)NC(=O)[C@@H](NC(=O)[C@H](CC(C)C)NC(=O)[C@H](CO)NC(=O)[C@@H](NC(=O)[C@H](Cc2ccc(O)cc2)NC(=O)[C@H](CC(N)=O)NC(=O)[C@H](CC(N)=O)NC(C)=O)[C@@H](C)O)[C@@H](C)CC)[C@@H](C)CC)C(N)=O)nn1 (Ac-NNYTSLIHSLIEESQNQQEKNEQELL[βAla]K(X11)-NH2) | 2.18
9 | C=CCOC(=O)[C@]12CC[C@@H](C(=C)C)[C@@H]1[C@H]1CC[C@@H]3[C@@]4(C)CC[C@H](OC(=O)CCc5cn(CC(=O)NCCC(=O)N[C@@H](CC(N)=O)C(=O)N[C@@H](CC(N)=O)C(=O)N[C@@H](Cc6ccc(O)cc6)C(=O)N[C@H](C(=O)N[C@@H](CO)C(=O)N[C@@H](CC(C)C)C(=O)N[C@H](C(=O)N[C@@H](Cc6cnc[nH]6)C(=O)N[C@@H](CO)C(=O)N[C@@H](CC(C)C)C(=O)N[C@H](C(=O)N[C@@H](CCC(=O)O)C(=O)N[C@@H](CCC(=O)O)C(=O)N[C@@H](CO)C(=O)N[C@@H](CCC(N)=O)C(=O)N[C@@H](CC(N)=O)C(=O)N[C@@H](CCC(N)=O)C(=O)N[C@@H](CCC(N)=O)C(=O)N[C@@H](CCC(=O)O)C(=O)N[C@@H](CCCCN)C(=O)N[C@@H](CC(N)=O)C(=O)N[C@@H](CCC(=O)O)C(=O)N[C@@H](CCC(N)=O)C(=O)N[C@@H](CCC(=O)O)C(=O)N[C@@H](CC(C)C)C(=O)N[C@@H](CC(C)C)C(N)=O)[C@@H](C)CC)[C@@H](C)CC)[C@@H](C)O)nn5)C(C)(C)[C@@H]4CC[C@@]3(C)[C@]1(C)CC2 ({X1-βAla}-NNYTSLIHSLIEESQNQQEKNEQELL-NH2) | 0.197
10 | C=C(C)[C@@H]1CC[C@]2(C(=O)O)CC[C@]3(C)[C@H](CC[C@@H]4[C@@]5(C)CC[C@H](OC(=O)CCc6cn(CC(=O)NCCC(=O)N[C@@H](CC(N)=O)C(=O)N[C@@H](CC(N)=O)C(=O)N[C@@H](Cc7ccc(O)cc7)C(=O)N[C@H](C(=O)N[C@@H](CO)C(=O)N[C@@H](CC(C)C)C(=O)N[C@H](C(=O)N[C@@H](Cc7cnc[nH]7)C(=O)N[C@@H](CO)C(=O)N[C@@H](CC(C)C)C(=O)N[C@H](C(=O)N[C@@H](CCC(=O)O)C(=O)N[C@@H](CCC(=O)O)C(=O)N[C@@H](CO)C(=O)N[C@@H](CCC(N)=O)C(=O)N[C@@H](CC(N)=O)C(=O)N[C@@H](CCC(N)=O)C(=O)N[C@@H](CCC(N)=O)C(=O)N[C@@H](CCC(=O)O)C(=O)N[C@@H](CCCCN)C(=O)N[C@@H](CC(N)=O)C(=O)N[C@@H](CCC(=O)O)C(=O)N[C@@H](CCC(N)=O)C(=O)N[C@@H](CCC(=O)O)C(=O)N[C@@H](CC(C)C)C(=O)N[C@@H](CC(C)C)C(N)=O)[C@@H](C)CC)[C@@H](C)CC)[C@@H](C)O)nn6)C(C)(C)[C@@H]5CC[C@]43C)[C@@H]12 ({X3-βAla}-NNYTSLIHSLIEESQNQQEKNEQELL-NH2) | 0.015
